Source: ChEMBL document CHEMBL1201862, “PubChem BioAssay data set” (2004)
Activity calls are given as the source filed them.

Tests used:
[1] = microbe, parasite or virus in culture; format: functional; details: Mycobacterium tuberculosis
Streptococcus = test: Group A Streptococcus viability loss, dose response, counter-screen for streptokinase expression inhibitor project, luminescence, BacTiterGlo (AID 1915); format: functional, organism-based;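 further: potency for reduction of bacterial viability or growth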
Streptokinase A = biological target: T1, Streptokinase A (Streptococcus pyogenes serotype M1, UniProt P10520); test: S. pyogenes streptokinase expression inhibitors, potency, dose response, plasminogen activation absorbance, OD405 (AID 1914); format: functional, Streptococcus pyogenes M1 GAS;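 further: secreted streptokinase activity via plasminogen activation per viability signal from cell pellet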
T1 sequence (P10520 whole entry): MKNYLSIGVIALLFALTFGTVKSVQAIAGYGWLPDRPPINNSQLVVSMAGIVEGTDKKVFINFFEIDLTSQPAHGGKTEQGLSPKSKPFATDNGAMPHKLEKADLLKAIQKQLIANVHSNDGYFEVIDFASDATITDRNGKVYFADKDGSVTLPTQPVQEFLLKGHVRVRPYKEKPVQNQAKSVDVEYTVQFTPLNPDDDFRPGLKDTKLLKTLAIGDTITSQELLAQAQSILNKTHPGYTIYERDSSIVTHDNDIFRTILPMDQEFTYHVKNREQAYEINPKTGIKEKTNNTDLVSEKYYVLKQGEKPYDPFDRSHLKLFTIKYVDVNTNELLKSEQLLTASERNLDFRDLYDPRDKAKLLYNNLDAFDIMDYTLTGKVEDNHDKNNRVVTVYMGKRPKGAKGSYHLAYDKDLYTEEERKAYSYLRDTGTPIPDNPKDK

[2] = system: Streptococcus sp. 'group A'; test: growth inhibition of control SK(-) GAS strain, dose response, counter-screen for streptokinase expression inhibitor project, luminescence, kanamycin, BacTiterGlo, confirmation (AID 1900); format: functional, organism-based
[3] = cytotoxicity in HEK-293T cells, dose response, cytotoxicity control for BCR NF-kB inhibitor project, luminescence, B-cell screen hits (AID 489021); format: functional, cell-based;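 further: HEK-293T cells carrying an NF-kB luciferase reporter; cells exposed to compound for about 14 hours before viability readout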
[4] = biological target: T2, Calpain-2 catalytic subunit (Sus scrofa, UniProt P43367); test: pig calpain II inhibitor potency, dose response, biochemical, fluorogenic peptide substrate (AID 1420); format: functional
T2 sequence (P43367 whole entry): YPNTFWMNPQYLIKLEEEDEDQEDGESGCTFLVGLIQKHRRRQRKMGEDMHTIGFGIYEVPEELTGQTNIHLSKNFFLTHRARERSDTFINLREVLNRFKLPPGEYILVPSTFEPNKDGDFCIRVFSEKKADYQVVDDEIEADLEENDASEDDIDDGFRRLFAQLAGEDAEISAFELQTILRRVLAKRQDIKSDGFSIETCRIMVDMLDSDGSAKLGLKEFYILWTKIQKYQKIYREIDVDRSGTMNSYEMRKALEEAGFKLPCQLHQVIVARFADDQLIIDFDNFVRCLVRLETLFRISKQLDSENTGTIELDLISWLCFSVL

[5] = Luminescence Cell-Based Dose Retest to Confirm Inhibitors of Cancer Stem Cells. [Related pubchem assays (depositor defined):AID2717, AID2721]; format: functional; details: Homo sapiens
INS1 = test: beta cell apoptosis inhibitors, cytokine rescue, dose response, luminescence, retest (AID 449756); format: functional, cell-based; details: Rattus norvegicus, INS1;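 further: cell death triggered by IL-1 beta plus TNF-alpha plus IFN-gamma mixture; protective hits raise ATP signal compared with cytokine alone wells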
Genome polyprotein = Genome polyprotein (dengue virus type 2, UniProt P29990); test: Dengue-2 NS5 methyltransferase inhibitors, primary screen, biochemical, confirmation dose response (AID 588689); format: functional
Genome polyprotein, sequence (P29990 2492-3391 limits assumed): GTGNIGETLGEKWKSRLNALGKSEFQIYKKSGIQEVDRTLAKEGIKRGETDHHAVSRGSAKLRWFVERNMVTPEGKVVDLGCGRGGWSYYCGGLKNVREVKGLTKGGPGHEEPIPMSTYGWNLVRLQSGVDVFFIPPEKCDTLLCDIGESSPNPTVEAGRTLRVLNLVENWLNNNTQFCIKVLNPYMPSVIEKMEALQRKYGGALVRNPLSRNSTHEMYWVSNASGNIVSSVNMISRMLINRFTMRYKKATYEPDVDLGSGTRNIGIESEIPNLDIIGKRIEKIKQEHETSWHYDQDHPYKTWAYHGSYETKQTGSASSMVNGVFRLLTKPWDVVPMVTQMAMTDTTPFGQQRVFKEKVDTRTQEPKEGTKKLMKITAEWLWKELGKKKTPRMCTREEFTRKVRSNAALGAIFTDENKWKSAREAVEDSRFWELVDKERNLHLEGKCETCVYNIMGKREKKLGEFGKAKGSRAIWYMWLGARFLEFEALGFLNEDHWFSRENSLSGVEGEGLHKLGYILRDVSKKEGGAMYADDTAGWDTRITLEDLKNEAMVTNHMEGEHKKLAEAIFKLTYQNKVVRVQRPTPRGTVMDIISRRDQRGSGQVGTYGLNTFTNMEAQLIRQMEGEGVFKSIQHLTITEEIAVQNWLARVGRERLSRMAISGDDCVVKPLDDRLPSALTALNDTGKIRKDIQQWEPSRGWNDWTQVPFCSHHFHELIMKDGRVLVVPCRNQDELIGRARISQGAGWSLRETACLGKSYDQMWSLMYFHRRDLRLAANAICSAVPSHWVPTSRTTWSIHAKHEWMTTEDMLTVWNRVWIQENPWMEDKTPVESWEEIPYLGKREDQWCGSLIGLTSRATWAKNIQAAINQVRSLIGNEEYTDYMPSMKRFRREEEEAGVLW

[6] = biological target: Induced myeloid leukemia cell differentiation protein Mcl-1 (Homo sapiens, UniProt Q07820); format: functional
Induced myeloid leukemia cell differentiation protein Mcl-1, sequence (Q07820 whole entry): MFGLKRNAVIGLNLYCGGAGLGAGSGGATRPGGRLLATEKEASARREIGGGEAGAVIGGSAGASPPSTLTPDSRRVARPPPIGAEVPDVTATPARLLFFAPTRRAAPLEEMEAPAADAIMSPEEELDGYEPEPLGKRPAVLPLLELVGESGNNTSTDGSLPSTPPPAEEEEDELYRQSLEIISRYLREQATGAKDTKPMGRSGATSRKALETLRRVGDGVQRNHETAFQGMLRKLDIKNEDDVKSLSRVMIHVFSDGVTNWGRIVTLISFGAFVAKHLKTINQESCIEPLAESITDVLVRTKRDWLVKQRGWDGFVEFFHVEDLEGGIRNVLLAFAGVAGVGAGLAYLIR

H4 = test: Luminescence Cell-Based Dose Response HTS to Identify Activators of 5'UTR Stem-Loop Driven Prion Protein mRNA Translation in H4 Neuroglioblastoma Cells. [Related pubchem assays: 1829 (Project Summary), 1814 (Primary HTS)]; format: functional; details: Homo sapiens
[7] = Luminescence Cell-Based Dose Response HTS to Identify Activators of Luciferase Translation or Activity in H4 […] Cells. [Related pubchem assays: 1829 (Project Summary), 1814 (Primary HTS)]; format: functional
[8] = Luminescence Cell-Based Dose Confirmation HTS to Identify Activators of 5'UTR Stem-Loop Driven Alpha-Synuclein mRNA Translation in H4 Neuroglioblastoma Cells. [Related pubchem assays: 1829 (Project Summary), 1814 (Primary HTS)]; format: functional
[9] = biological target: T3, Ubiquitin-conjugating enzyme E2 N (Homo sapiens, UniProt P61088); format: functional;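 further: Dose-response confirmation in a TR-FRET assay detecting UBC13-driven polyubiquitin chain formation, inhibition measured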
T3 sequence (P61088 whole entry): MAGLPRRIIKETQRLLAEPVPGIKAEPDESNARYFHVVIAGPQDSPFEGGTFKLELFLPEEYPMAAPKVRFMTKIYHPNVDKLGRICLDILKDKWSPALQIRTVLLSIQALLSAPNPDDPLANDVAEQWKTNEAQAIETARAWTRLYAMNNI

Protein RecA = biological target: T4, Protein RecA (Mycobacterium tuberculosis, UniProt P9WHJ3); test: Fluorescence Cell-Free Homogeneous Dose Retest to Identify Inhibitors of RecA-Intein Splicing Activity. [Related pubchem assays (depositor defined):AID2097, AID2223, AID489010, AID492950]; format: functional
T4 sequence (P9WHJ3 whole entry): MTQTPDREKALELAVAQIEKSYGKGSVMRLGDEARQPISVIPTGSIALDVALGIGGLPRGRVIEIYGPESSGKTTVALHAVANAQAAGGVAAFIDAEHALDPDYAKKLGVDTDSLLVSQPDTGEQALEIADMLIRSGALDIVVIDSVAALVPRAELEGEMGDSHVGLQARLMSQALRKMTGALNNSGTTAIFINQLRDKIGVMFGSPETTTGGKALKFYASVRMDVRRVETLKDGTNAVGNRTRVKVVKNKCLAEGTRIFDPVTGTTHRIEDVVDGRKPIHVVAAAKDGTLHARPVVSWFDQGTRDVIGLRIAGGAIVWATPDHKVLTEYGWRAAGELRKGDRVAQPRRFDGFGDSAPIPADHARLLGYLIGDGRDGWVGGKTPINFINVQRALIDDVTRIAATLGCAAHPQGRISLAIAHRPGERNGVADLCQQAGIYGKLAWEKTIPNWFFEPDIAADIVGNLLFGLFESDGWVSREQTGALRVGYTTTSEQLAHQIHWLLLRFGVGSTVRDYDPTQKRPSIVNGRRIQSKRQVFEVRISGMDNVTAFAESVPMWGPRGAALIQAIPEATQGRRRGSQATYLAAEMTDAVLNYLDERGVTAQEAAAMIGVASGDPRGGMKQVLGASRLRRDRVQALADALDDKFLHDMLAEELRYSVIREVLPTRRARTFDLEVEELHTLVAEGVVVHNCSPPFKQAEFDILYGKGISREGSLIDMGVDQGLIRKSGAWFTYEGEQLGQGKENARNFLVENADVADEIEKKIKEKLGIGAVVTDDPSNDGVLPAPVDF

[10] = biological target: T5, Replicative DNA helicase DnaB (Mycobacterium tuberculosis, UniProt P9WMR3); test: DnaB intein splicing inhibitors, dose response, biochemical, cell-free fluorescence (AID 449749); format: functional
T5 sequence (P9WMR3 whole entry): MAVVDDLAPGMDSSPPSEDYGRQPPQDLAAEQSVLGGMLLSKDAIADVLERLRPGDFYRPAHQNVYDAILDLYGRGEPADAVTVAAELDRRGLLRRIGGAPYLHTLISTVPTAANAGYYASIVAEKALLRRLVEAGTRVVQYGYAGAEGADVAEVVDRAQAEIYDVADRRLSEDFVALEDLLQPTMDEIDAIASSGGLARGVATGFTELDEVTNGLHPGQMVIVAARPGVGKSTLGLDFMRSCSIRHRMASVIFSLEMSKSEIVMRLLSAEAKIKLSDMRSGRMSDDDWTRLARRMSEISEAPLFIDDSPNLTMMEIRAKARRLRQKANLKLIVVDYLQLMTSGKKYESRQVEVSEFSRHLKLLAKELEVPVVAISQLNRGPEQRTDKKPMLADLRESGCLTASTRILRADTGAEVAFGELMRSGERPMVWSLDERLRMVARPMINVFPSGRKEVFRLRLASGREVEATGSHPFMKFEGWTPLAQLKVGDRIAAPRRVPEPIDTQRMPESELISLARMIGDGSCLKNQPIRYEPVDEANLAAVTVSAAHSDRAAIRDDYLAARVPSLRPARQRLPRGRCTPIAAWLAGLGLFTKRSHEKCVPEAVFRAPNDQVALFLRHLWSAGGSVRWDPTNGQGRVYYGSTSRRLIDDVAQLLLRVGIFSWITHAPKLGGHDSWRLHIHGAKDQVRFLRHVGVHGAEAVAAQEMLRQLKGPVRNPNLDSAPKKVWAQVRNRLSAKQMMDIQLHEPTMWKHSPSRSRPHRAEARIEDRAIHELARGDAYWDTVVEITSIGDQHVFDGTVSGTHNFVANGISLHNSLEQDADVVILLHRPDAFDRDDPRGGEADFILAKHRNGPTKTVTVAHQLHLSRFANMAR

[11] = biological target: T6, Heat shock factor protein 1 (Mus musculus, UniProt P38532); test: HSF1 potentiators in luciferase reporter cells, confirmation, cell-based, NIH3T3, luminescence, dose retest (AID 435004); format: functional;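 further: stress induced by proteasome inhibitor MG132 added 30 min after compound; luciferase reporter driven by HSF1 response element in NIH3T3 cells; actives raise luminescence as potentiators of the MG132 stress response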
T6 sequence (P38532 whole entry): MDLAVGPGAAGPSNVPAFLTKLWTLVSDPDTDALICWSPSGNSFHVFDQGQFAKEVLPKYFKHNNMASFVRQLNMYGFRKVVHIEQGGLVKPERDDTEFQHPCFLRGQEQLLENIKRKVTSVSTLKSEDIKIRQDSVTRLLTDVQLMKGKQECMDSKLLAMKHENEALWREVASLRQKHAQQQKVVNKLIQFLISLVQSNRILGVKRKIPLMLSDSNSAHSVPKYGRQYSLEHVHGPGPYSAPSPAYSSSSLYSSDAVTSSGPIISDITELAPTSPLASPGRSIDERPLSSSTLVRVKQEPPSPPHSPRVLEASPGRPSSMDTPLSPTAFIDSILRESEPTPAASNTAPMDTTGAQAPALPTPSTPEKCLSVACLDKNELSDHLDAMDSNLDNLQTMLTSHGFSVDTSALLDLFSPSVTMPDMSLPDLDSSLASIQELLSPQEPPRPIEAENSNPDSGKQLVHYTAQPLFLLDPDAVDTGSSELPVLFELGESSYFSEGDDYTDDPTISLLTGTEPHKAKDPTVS

## CCn1nc(NC(=O)c2ccncc2)c2cc3cc(C)ccc3nc21
[1]
  CC50: > 40 µM (active)
Streptococcus
  EC50: 11.4 µM (active)
Streptokinase A
  EC50: > 150 µM (not active)
[2]
  EC50: 1.88 µM (active)

## C/C=C(/C)C(=O)OC1Cc2c(ccc3ccc(=O)oc23)OC1(C)C (stereo not given)
[3]
  IC50: > 80 µM (inactive)

## Cc1cc(NC(=O)CSc2nc3ccsc3c(=O)n2CCCC(=O)NCCc2ccccc2)no1
[4]
  IC50: 14.1 µM (not active)

## CCc1c(C)sc2nc3c(C(=O)N4CCOCC4)cc(C(=O)c4cc(F)ccc4O)cn3c(=O)c12
[1]
  CC50: > 40 µM (active)

## CC1CN(Cc2csc(-c3ccc(Cl)cc3)n2)CC(C)O1 (stereo not given)
[4]
  IC50: 13.2 µM (not active)

## Cc1cc(=O)oc2cc(Oc3ccc([N+](=O)[O-])cc3C(F)(F)F)ccc12
[1]
  CC50: > 40 µM (active)

## CN1C(=O)c2cccc3c(S(=O)(=O)Nc4ccccc4F)ccc1c23
[3]
  IC50: > 80 µM (inactive)

## Cc1ccc(C)c(NC(=O)c2cc(-c3ccccc3)nn2-c2ccccc2)c1
[5]
  AC50: 33.9 µM (active)
[1]
  CC50: > 40 µM (active)

## O=C(Nc1cc(Sc2ccccn2)cc([N+](=O)[O-])c1)c1cccc(F)c1
[4]
  IC50: 5.86 µM (not active)
INS1
  AC50: 5.55 µM (active)

## CCOC(=O)C1CCCN(C(=O)CSc2ccc(NC(C)=O)cc2)C1 (stereo not given)
[4]
  IC50: < 0.4 µM (not active)

## O=C(NCc1ccco1)C1CCN(C(=O)c2cc3sccc3n2Cc2ccc(Cl)cc2)CC1
[4]
  IC50: 10.9 µM (not active)

## COc1ccc(-c2ccc(OC)c([C@H]3[C@H]4C=CC[C@@H](C)[C@@H]4C(=O)N3Cc3ccccc3)c2)cc1C
[3]
  IC50: > 80 µM (inactive)

## COc1cc(/C=C2\C(=N)N3N=C(N4CCOCC4)SC3=NC2=O)ccc1OC(=O)c1ccccc1
Genome polyprotein
  IC50: 80.1 µM (active)

## O=C(Nc1ccc(Cl)cc1)N(Cc1nc(O)c2ccccc2n1)Cc1cccs1
[1]
  CC50: > 40 µM (active)

## Cn1c(=O)c(C(=O)NNC(=O)c2cccc(Cl)c2)c(O)c2ccccc21
[1]
  CC50: > 40 µM (active)

## CCN(c1ccc(NC(=O)CCNC(=O)c2ccco2)cc1)C(C)C
[6]
  IC50: 3.29 µM (not active)

## CCCn1c(O)nnc1SCc1nc2ccccc2s1
[4]
  IC50: 0.803 µM (not active)
H4
  EC50: 37.1 µM (active)
[7]
  EC50: 22.7 µM (active)
[8]
  EC50: 3.71 µM (active)

## CCN(CC)C(=O)c1ccc(S(=O)(=O)Cc2ccc(C)cc2)c([N+](=O)[O-])c1
[3]
  IC50: > 80 µM (inactive)

## CC(C)[C@H](N)c1nnc(SCC(=O)c2ccc(Cl)cc2)o1
[3]
  IC50: > 80 µM (inactive)

## O=P(Nc1cccc(Cl)c1)(Oc1ccccc1)Oc1ccccc1
[4]
  IC50: 8.58 µM (not active)

## O=C(Nc1ccn(Cc2ccccc2F)n1)c1ccc(COc2ccccc2Cl)cc1
[5]
  AC50: 1.02 µM (active)
[1]
  CC50: > 40 µM (active)

## Cc1c(Br)c([N+](=O)[O-])nn1CCCC(=O)Nc1c(C)n(C)n(-c2ccccc2)c1=O
[9]
  IC50: > 20 µM (inactive)

## Clc1ccc2c(c1)CNc1c(ncnc1N1CCOCC1)O2
[9]
  IC50: > 20 µM (inactive)

## CCOC(=O)c1c(NC(=O)c2ccc(C)cc2)sc2c1CC(C)(C)NC2(C)C
[9]
  IC50: > 20 µM (inactive)

## O=C(COC(=O)c1c[nH]c(=O)[nH]c1=O)Nc1cccc([N+](=O)[O-])c1
[9]
  IC50: > 20 µM (inactive)

## CC1CC(=O)C(C(C2=C(O)CC(C)CC2=O)c2ccccc2)=C(O)C1 (stereo not given)
Genome polyprotein
  IC50: 66.2 µM (active)

## CCOC(=O)c1c(NC(C)=O)sc2c1CCC(/C=N/CCCN(CC)CC)=C2Sc1ccccc1
Protein RecA
  EC50: 0.229 µM (active)
[10]
  AC50: 0.239 µM (active)
[11]
  EC50: 16.6 µM (active)

## CCn1nc(C)c(/C=N/NC(=O)Cc2ccc(Cl)cc2)c1C
[6]
  IC50: < 0.4 µM (not active)

## CN(C)c1ccc(/C=c2\sc3nc(-c4ccccc4)nn3c2=O)cc1
[6]
  IC50: 5.67 µM (active)
